The structures appear in SMILES notation.

Chain of MYLK (human) (Q15746 whole entry, looked up): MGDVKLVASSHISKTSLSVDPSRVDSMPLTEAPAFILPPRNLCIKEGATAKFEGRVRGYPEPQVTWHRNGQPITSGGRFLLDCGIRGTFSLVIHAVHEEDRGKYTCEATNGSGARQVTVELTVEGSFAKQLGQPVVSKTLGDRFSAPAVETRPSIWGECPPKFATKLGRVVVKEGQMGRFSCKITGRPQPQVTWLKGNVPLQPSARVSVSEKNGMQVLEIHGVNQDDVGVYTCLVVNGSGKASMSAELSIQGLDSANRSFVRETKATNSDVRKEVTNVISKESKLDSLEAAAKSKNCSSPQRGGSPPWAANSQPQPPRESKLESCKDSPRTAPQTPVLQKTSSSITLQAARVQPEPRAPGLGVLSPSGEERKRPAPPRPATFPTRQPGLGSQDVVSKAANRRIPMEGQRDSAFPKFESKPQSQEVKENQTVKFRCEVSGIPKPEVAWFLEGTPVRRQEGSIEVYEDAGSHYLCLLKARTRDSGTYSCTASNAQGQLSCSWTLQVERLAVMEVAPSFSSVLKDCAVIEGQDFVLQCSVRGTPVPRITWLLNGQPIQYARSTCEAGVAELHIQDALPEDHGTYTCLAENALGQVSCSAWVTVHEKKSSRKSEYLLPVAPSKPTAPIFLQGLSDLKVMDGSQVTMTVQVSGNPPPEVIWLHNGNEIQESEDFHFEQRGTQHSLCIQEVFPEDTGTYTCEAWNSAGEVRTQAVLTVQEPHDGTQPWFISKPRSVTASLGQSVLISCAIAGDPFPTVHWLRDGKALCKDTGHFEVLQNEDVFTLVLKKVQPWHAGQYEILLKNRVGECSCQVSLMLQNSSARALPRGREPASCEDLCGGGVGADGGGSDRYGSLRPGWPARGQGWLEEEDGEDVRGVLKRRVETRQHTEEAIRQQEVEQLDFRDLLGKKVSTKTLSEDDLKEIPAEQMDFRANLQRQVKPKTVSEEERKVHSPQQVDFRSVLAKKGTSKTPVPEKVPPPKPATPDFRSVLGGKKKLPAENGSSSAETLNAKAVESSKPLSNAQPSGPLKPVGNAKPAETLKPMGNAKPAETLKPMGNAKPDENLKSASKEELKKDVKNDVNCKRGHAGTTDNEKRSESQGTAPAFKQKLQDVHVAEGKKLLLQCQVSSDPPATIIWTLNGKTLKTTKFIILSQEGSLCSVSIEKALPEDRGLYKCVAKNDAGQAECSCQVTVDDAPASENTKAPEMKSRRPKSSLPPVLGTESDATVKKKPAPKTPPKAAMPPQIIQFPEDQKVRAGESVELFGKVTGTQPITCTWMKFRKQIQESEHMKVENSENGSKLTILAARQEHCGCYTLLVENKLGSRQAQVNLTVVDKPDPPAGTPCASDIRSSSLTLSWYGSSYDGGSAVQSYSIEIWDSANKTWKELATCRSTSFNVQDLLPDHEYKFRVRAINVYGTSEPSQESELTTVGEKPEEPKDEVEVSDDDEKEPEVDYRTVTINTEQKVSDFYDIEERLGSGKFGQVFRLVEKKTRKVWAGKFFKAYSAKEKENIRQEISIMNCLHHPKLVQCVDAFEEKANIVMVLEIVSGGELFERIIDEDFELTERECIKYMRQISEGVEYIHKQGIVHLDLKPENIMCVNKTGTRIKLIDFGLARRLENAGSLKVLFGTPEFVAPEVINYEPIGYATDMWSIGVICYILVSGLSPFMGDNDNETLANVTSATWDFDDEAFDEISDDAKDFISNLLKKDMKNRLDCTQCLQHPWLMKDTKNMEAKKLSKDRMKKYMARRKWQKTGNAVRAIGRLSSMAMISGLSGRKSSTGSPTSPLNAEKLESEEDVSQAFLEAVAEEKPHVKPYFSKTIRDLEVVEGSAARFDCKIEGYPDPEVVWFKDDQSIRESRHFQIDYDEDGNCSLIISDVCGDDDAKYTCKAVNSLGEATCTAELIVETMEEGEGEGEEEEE
Chain of STK16 (human) (O75716 whole entry, looked up): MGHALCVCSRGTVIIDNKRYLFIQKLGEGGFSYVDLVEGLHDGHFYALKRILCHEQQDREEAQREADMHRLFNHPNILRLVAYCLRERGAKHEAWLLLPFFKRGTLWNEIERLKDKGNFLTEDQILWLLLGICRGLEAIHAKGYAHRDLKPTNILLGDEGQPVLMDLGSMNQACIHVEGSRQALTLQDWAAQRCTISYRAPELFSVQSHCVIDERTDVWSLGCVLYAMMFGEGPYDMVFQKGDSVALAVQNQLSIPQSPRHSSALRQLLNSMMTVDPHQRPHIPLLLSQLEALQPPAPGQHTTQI

The target of one test is TESK1 (human) (UniProt Q15569). Kind of test: radiometric filter-binding kinase assay. Particulars: compound 0.1 µM.
Regarding `C=CC(=O)N1CCC[C@@H](n2nc(-c3ccc(Oc4ccccc4)cc3)c3c(N)ncnc32)C1`, the residual activity – broadly, the signal under treatment as a percentage of the control signal – worked out at 69%.
The same measure, in the same setting: next, `NC(=O)c1cc(-c2ccnc(NC3CCCCC3)c2)nc(N2CCNCC2)c1`: 99%; `O=C(N[C@@H](COc1ccc2[nH]c(=O)[nH]c2c1)c1ccccc1)c1cccn(Cc2ccc(F)c(F)c2)c1=O`: 98%; `COc1ccc(-n2ncc3cnc(Nc4cc(OC)c(OC)c(OCCCN5CCN(C)CC5)c4)nc32)cc1`: 59%.

Staying with this test, now noted: compound 1.0 µM.
Consider `C=CC(=O)N1CCC[C@@H](n2nc(-c3ccc(Oc4ccccc4)cc3)c3c(N)ncnc32)C1`, for which the residual activity was 71%.
Still for that read-out and setting: next, `NC(=O)c1cc(-c2ccnc(NC3CCCCC3)c2)nc(N2CCNCC2)c1`: 102%; `Cc1ccc(=O)n(-c2ccccc2)c1`: 94%; `O=C(N[C@@H](COc1ccc2[nH]c(=O)[nH]c2c1)c1ccccc1)c1cccn(Cc2ccc(F)c(F)c2)c1=O`: 88%.
Turning to `COc1ccc(-n2ncc3cnc(Nc4cc(OC)c(OC)c(OCCCN5CCN(C)CC5)c4)nc32)cc1`, the residual activity was 24%.

Staying with this test, now noted: compound 10.0 µM.
On to `C=CC(=O)N1CCC[C@@H](n2nc(-c3ccc(Oc4ccccc4)cc3)c3c(N)ncnc32)C1`, for which the residual activity came out at 38%.
As for `NC(=O)c1cc(-c2ccnc(NC3CCCCC3)c2)nc(N2CCNCC2)c1`, the residual activity turned out to be 93%.
Turning to `Cc1ccc(=O)n(-c2ccccc2)c1`, the residual activity is 82%.
For `O=C(N[C@@H](COc1ccc2[nH]c(=O)[nH]c2c1)c1ccccc1)c1cccn(Cc2ccc(F)c(F)c2)c1=O`, the residual activity came to 107%.

Another test addresses STK16 (human) (UniProt O75716). Kind of test: radiometric filter-binding kinase assay. The note with it: compound 0.1 µM.
Regarding `C=CC(=O)N1CCC[C@@H](n2nc(-c3ccc(Oc4ccccc4)cc3)c3c(N)ncnc32)C1`, the residual activity was found to be 99%.
On to `NC(=O)c1cc(-c2ccnc(NC3CCCCC3)c2)nc(N2CCNCC2)c1`, for which the residual activity came to 100%.
Still for that read-out and setting: next, `O=C(N[C@@H](COc1ccc2[nH]c(=O)[nH]c2c1)c1ccccc1)c1cccn(Cc2ccc(F)c(F)c2)c1=O`: 101%; `COc1ccc(-n2ncc3cnc(Nc4cc(OC)c(OC)c(OCCCN5CCN(C)CC5)c4)nc32)cc1`: 101%.

The test is the same for the next values; noted with them: compound 1.0 µM.
In the case of `C=CC(=O)N1CCC[C@@H](n2nc(-c3ccc(Oc4ccccc4)cc3)c3c(N)ncnc32)C1`, the residual activity was 117%.
With `NC(=O)c1cc(-c2ccnc(NC3CCCCC3)c2)nc(N2CCNCC2)c1`, the residual activity is 93%.
Consider `Cc1ccc(=O)n(-c2ccccc2)c1`, for which the residual activity was 87%.
On the same count and under the same terms, next, `O=C(N[C@@H](COc1ccc2[nH]c(=O)[nH]c2c1)c1ccccc1)c1cccn(Cc2ccc(F)c(F)c2)c1=O`: 118%; `COc1ccc(-n2ncc3cnc(Nc4cc(OC)c(OC)c(OCCCN5CCN(C)CC5)c4)nc32)cc1`: 42%.

Still in this test, the particulars now being: compound 10.0 µM.
For `C=CC(=O)N1CCC[C@@H](n2nc(-c3ccc(Oc4ccccc4)cc3)c3c(N)ncnc32)C1`, the residual activity amounted to 104%.
Regarding `NC(=O)c1cc(-c2ccnc(NC3CCCCC3)c2)nc(N2CCNCC2)c1`, the residual activity is 84%.
Consider `Cc1ccc(=O)n(-c2ccccc2)c1`, for which the residual activity turned out to be 96%.
`O=C(N[C@@H](COc1ccc2[nH]c(=O)[nH]c2c1)c1ccccc1)c1cccn(Cc2ccc(F)c(F)c2)c1=O`: the residual activity was 106%.

Another test addresses MYLK (human) (UniProt Q15746). Kind of test: radiometric filter-binding kinase assay. The note with it: compound 0.1 µM.
As for `C=CC(=O)N1CCC[C@@H](n2nc(-c3ccc(Oc4ccccc4)cc3)c3c(N)ncnc32)C1`, the residual activity turned out to be 79%.
Consider `NC(=O)c1cc(-c2ccnc(NC3CCCCC3)c2)nc(N2CCNCC2)c1`, for which the residual activity worked out at 85%.
Same read-out and setting: then `O=C(N[C@@H](COc1ccc2[nH]c(=O)[nH]c2c1)c1ccccc1)c1cccn(Cc2ccc(F)c(F)c2)c1=O`, with 97%; and `COc1ccc(-n2ncc3cnc(Nc4cc(OC)c(OC)c(OCCCN5CCN(C)CC5)c4)nc32)cc1`, with 100%.

Staying with this test, now noted: compound 1.0 µM.
Turning to `C=CC(=O)N1CCC[C@@H](n2nc(-c3ccc(Oc4ccccc4)cc3)c3c(N)ncnc32)C1`, the residual activity was 90%.
On to `NC(=O)c1cc(-c2ccnc(NC3CCCCC3)c2)nc(N2CCNCC2)c1`, for which the residual activity worked out at 40%.
The same measure, in the same setting: next, `Cc1ccc(=O)n(-c2ccccc2)c1`: 102%; `O=C(N[C@@H](COc1ccc2[nH]c(=O)[nH]c2c1)c1ccccc1)c1cccn(Cc2ccc(F)c(F)c2)c1=O`: 97%; `COc1ccc(-n2ncc3cnc(Nc4cc(OC)c(OC)c(OCCCN5CCN(C)CC5)c4)nc32)cc1`: 72%.

Still in this test, the particulars now being: compound 10.0 µM.
As to `C=CC(=O)N1CCC[C@@H](n2nc(-c3ccc(Oc4ccccc4)cc3)c3c(N)ncnc32)C1`, the residual activity turned out to be 44%.
Still for that read-out and setting: then `NC(=O)c1cc(-c2ccnc(NC3CCCCC3)c2)nc(N2CCNCC2)c1`, with 10%; and `Cc1ccc(=O)n(-c2ccccc2)c1`, with 89%.
With `O=C(N[C@@H](COc1ccc2[nH]c(=O)[nH]c2c1)c1ccccc1)c1cccn(Cc2ccc(F)c(F)c2)c1=O`, the residual activity turned out to be 89%.

The target in a further test is ZAP70 (human) (UniProt P43403). The test is described as follows: radiometric filter-binding kinase assay. The note with it: compound 0.1 µM.
Chain of ZAP70 (human) (P43403 whole entry, looked up): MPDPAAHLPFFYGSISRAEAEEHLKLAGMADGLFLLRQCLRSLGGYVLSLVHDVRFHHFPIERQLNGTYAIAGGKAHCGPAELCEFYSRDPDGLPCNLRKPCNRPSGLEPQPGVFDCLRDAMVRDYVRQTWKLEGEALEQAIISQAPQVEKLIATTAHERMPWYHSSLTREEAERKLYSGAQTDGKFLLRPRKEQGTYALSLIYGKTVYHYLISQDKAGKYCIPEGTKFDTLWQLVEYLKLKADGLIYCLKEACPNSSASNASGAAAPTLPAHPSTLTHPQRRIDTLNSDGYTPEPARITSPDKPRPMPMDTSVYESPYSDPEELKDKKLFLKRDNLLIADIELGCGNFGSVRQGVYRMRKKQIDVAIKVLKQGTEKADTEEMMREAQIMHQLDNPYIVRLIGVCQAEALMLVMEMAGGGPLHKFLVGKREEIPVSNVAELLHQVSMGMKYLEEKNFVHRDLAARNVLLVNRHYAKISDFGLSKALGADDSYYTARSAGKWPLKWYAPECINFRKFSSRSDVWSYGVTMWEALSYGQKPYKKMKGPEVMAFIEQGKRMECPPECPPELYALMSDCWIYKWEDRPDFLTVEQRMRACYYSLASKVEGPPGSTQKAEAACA
With `C=CC(=O)N1CCC[C@@H](n2nc(-c3ccc(Oc4ccccc4)cc3)c3c(N)ncnc32)C1`, the residual activity was 93%.
Take `NC(=O)c1cc(-c2ccnc(NC3CCCCC3)c2)nc(N2CCNCC2)c1`: the residual activity was 108%.
With `O=C(N[C@@H](COc1ccc2[nH]c(=O)[nH]c2c1)c1ccccc1)c1cccn(Cc2ccc(F)c(F)c2)c1=O`, the residual activity worked out at 102%.
As to `COc1ccc(-n2ncc3cnc(Nc4cc(OC)c(OC)c(OCCCN5CCN(C)CC5)c4)nc32)cc1`, the residual activity turned out to be 54%.

The test is the same for the next values; noted with them: compound 1.0 µM.
Consider `C=CC(=O)N1CCC[C@@H](n2nc(-c3ccc(Oc4ccccc4)cc3)c3c(N)ncnc32)C1`, for which the residual activity was determined as 107%.
For the compound `NC(=O)c1cc(-c2ccnc(NC3CCCCC3)c2)nc(N2CCNCC2)c1`, the residual activity worked out at 114%.
The same measure, in the same setting: next, `Cc1ccc(=O)n(-c2ccccc2)c1`: 110%; `O=C(N[C@@H](COc1ccc2[nH]c(=O)[nH]c2c1)c1ccccc1)c1cccn(Cc2ccc(F)c(F)c2)c1=O`: 106%.
Turning to `COc1ccc(-n2ncc3cnc(Nc4cc(OC)c(OC)c(OCCCN5CCN(C)CC5)c4)nc32)cc1`, the residual activity was determined as 22%.

The same test, now with this note: compound 10.0 µM.
Take `C=CC(=O)N1CCC[C@@H](n2nc(-c3ccc(Oc4ccccc4)cc3)c3c(N)ncnc32)C1`: the residual activity was 101%.
On the same count and under the same terms, then `NC(=O)c1cc(-c2ccnc(NC3CCCCC3)c2)nc(N2CCNCC2)c1`, with 109%.

The target in the next test is ABL1 (human) (UniProt P00519). Kind of test: radiometric filter-binding kinase assay. Particulars: compound 0.1 µM.
For the compound `C=CC(=O)N1CCC[C@@H](n2nc(-c3ccc(Oc4ccccc4)cc3)c3c(N)ncnc32)C1`, the residual activity stood at 87%.
Turning to `NC(=O)c1cc(-c2ccnc(NC3CCCCC3)c2)nc(N2CCNCC2)c1`, the residual activity turned out to be 102%.
On the same count and under the same terms, then `O=C(N[C@@H](COc1ccc2[nH]c(=O)[nH]c2c1)c1ccccc1)c1cccn(Cc2ccc(F)c(F)c2)c1=O`, with 106%; and `COc1ccc(-n2ncc3cnc(Nc4cc(OC)c(OC)c(OCCCN5CCN(C)CC5)c4)nc32)cc1`, with 31%.

Still in this test, the particulars now being: compound 1.0 µM.
`C=CC(=O)N1CCC[C@@H](n2nc(-c3ccc(Oc4ccccc4)cc3)c3c(N)ncnc32)C1`: the residual activity is 80%.
On to `NC(=O)c1cc(-c2ccnc(NC3CCCCC3)c2)nc(N2CCNCC2)c1`, for which the residual activity is 112%.
The same measure, in the same setting: next, `Cc1ccc(=O)n(-c2ccccc2)c1`: 106%.
Still for that read-out and setting: then `O=C(N[C@@H](COc1ccc2[nH]c(=O)[nH]c2c1)c1ccccc1)c1cccn(Cc2ccc(F)c(F)c2)c1=O`, with 105%; and `COc1ccc(-n2ncc3cnc(Nc4cc(OC)c(OC)c(OCCCN5CCN(C)CC5)c4)nc32)cc1`, with 7%.

The test is the same for the next values; noted with them: compound 10.0 µM.
Take `C=CC(=O)N1CCC[C@@H](n2nc(-c3ccc(Oc4ccccc4)cc3)c3c(N)ncnc32)C1`: the residual activity amounted to 39%.
`NC(=O)c1cc(-c2ccnc(NC3CCCCC3)c2)nc(N2CCNCC2)c1`: the residual activity was 100%.
Same read-out and setting: then `Cc1ccc(=O)n(-c2ccccc2)c1`, with 112%.
Still for that read-out and setting: next, `O=C(N[C@@H](COc1ccc2[nH]c(=O)[nH]c2c1)c1ccccc1)c1cccn(Cc2ccc(F)c(F)c2)c1=O`: 98%.

For the next test, the target named is PTK6 (human) (UniProt Q13882). Kind of test: radiometric filter-binding kinase assay. The note with it: compound 0.1 µM.
Chain of PTK6 (human) (Q13882 whole entry, looked up): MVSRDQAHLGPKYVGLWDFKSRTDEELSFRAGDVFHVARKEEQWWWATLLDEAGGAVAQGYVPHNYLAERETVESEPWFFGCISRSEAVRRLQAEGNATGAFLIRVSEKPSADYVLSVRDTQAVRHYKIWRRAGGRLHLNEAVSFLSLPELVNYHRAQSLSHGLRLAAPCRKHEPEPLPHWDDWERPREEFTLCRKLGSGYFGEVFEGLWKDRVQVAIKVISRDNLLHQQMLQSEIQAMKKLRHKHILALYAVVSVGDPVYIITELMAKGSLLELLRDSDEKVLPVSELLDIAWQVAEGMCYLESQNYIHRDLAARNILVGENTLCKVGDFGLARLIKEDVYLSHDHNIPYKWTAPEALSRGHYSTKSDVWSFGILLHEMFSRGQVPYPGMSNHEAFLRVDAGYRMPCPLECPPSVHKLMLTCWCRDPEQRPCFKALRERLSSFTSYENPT
As to `C=CC(=O)N1CCC[C@@H](n2nc(-c3ccc(Oc4ccccc4)cc3)c3c(N)ncnc32)C1`, the residual activity worked out at 10%.
On to `NC(=O)c1cc(-c2ccnc(NC3CCCCC3)c2)nc(N2CCNCC2)c1`, for which the residual activity turned out to be 114%.
The same measure, in the same setting: next, `O=C(N[C@@H](COc1ccc2[nH]c(=O)[nH]c2c1)c1ccccc1)c1cccn(Cc2ccc(F)c(F)c2)c1=O`: 120%; `COc1ccc(-n2ncc3cnc(Nc4cc(OC)c(OC)c(OCCCN5CCN(C)CC5)c4)nc32)cc1`: 46%.

The test is the same for the next values; noted with them: compound 1.0 µM.
Regarding `C=CC(=O)N1CCC[C@@H](n2nc(-c3ccc(Oc4ccccc4)cc3)c3c(N)ncnc32)C1`, the residual activity is 4%.
Same read-out and setting: next, `NC(=O)c1cc(-c2ccnc(NC3CCCCC3)c2)nc(N2CCNCC2)c1`: 124%.
With `Cc1ccc(=O)n(-c2ccccc2)c1`, the residual activity is 101%.
The same measure, in the same setting: then `O=C(N[C@@H](COc1ccc2[nH]c(=O)[nH]c2c1)c1ccccc1)c1cccn(Cc2ccc(F)c(F)c2)c1=O`, with 129%.
Still for that read-out and setting: next, `COc1ccc(-n2ncc3cnc(Nc4cc(OC)c(OC)c(OCCCN5CCN(C)CC5)c4)nc32)cc1`: 6%.

The same test, now with this note: compound 10.0 µM.
With `C=CC(=O)N1CCC[C@@H](n2nc(-c3ccc(Oc4ccccc4)cc3)c3c(N)ncnc32)C1`, the residual activity was 8%.
On the same count and under the same terms, next, `NC(=O)c1cc(-c2ccnc(NC3CCCCC3)c2)nc(N2CCNCC2)c1`: 103%.
Still for that read-out and setting: then `Cc1ccc(=O)n(-c2ccccc2)c1`, with 92%.
On the same count and under the same terms, next, `O=C(N[C@@H](COc1ccc2[nH]c(=O)[nH]c2c1)c1ccccc1)c1cccn(Cc2ccc(F)c(F)c2)c1=O`: 119%.

The target in another test is TLK1 (human) (UniProt Q9UKI8). The test is described as follows: radiometric filter-binding kinase assay. Particulars: compound 0.1 µM.
Chain of TLK1 (human) (Q9UKI8 whole entry, looked up): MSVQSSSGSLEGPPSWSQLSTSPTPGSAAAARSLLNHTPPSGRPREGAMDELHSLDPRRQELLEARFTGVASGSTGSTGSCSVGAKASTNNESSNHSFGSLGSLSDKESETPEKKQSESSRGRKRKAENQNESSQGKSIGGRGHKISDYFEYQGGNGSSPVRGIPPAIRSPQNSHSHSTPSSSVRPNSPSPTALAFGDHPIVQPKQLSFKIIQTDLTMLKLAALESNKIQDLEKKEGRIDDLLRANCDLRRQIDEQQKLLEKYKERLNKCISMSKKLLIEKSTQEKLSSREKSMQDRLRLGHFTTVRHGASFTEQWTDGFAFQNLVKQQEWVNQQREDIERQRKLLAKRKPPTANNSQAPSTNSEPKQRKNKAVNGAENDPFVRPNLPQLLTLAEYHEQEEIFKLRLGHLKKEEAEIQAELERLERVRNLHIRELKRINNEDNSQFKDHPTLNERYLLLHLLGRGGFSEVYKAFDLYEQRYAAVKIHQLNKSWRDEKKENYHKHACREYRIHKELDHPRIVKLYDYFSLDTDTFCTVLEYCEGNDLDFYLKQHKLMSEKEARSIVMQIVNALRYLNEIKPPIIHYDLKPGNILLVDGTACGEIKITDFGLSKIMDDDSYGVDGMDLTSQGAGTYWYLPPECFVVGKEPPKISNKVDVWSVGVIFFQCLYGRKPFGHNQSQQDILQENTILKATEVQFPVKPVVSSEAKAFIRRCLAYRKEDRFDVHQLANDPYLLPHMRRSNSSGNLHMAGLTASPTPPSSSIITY
As for `NC(=O)c1cc(-c2ccnc(NC3CCCCC3)c2)nc(N2CCNCC2)c1`, the residual activity was found to be 91%.
Regarding `O=C(N[C@@H](COc1ccc2[nH]c(=O)[nH]c2c1)c1ccccc1)c1cccn(Cc2ccc(F)c(F)c2)c1=O`, the residual activity came out at 97%.
For the compound `COc1ccc(-n2ncc3cnc(Nc4cc(OC)c(OC)c(OCCCN5CCN(C)CC5)c4)nc32)cc1`, the residual activity was 79%.

Still in this test, the particulars now being: compound 1.0 µM.
As to `C=CC(=O)N1CCC[C@@H](n2nc(-c3ccc(Oc4ccccc4)cc3)c3c(N)ncnc32)C1`, the residual activity was 99%.
The same measure, in the same setting: next, `NC(=O)c1cc(-c2ccnc(NC3CCCCC3)c2)nc(N2CCNCC2)c1`: 107%; `Cc1ccc(=O)n(-c2ccccc2)c1`: 113%; `O=C(N[C@@H](COc1ccc2[nH]c(=O)[nH]c2c1)c1ccccc1)c1cccn(Cc2ccc(F)c(F)c2)c1=O`: 103%.
As for `COc1ccc(-n2ncc3cnc(Nc4cc(OC)c(OC)c(OCCCN5CCN(C)CC5)c4)nc32)cc1`, the residual activity is 39%.

Staying with this test, now noted: compound 10.0 µM.
For the compound `NC(=O)c1cc(-c2ccnc(NC3CCCCC3)c2)nc(N2CCNCC2)c1`, the residual activity is 90%.
The same measure, in the same setting: then `Cc1ccc(=O)n(-c2ccccc2)c1`, with 115%.
Same read-out and setting: then `O=C(N[C@@H](COc1ccc2[nH]c(=O)[nH]c2c1)c1ccccc1)c1cccn(Cc2ccc(F)c(F)c2)c1=O`, with 99%.

The next test deals with PRKCG (human) (UniProt P05129). Kind of test: radiometric filter-binding kinase assay. The note with it: compound 0.1 µM.
Take `C=CC(=O)N1CCC[C@@H](n2nc(-c3ccc(Oc4ccccc4)cc3)c3c(N)ncnc32)C1`: the residual activity worked out at 85%.
The same measure, in the same setting: then `NC(=O)c1cc(-c2ccnc(NC3CCCCC3)c2)nc(N2CCNCC2)c1`, with 106%; and `O=C(N[C@@H](COc1ccc2[nH]c(=O)[nH]c2c1)c1ccccc1)c1cccn(Cc2ccc(F)c(F)c2)c1=O`, with 91%.
On the same count and under the same terms, next, `COc1ccc(-n2ncc3cnc(Nc4cc(OC)c(OC)c(OCCCN5CCN(C)CC5)c4)nc32)cc1`: 117%.

Values taken from the kinase profiling compilation of Christmann-Franck et al. (2016).
